{
  "source": "patent US20040006103A1",
  "about": "“Use of chloroquine, hydroxychloroquine and 4 amino-quinolinic derivatives to obtain a drug for the anti retroviral therapy, active towards HIV sensitive strains and towards HIV strains which are resistant to both nucleosidic and non-nucleosidic reverse transcriptase inhibitors and to proteases …” (VALPHARMA S.A., priority 2002, published 2004)",
  "origin": "cited, not measured here",
  "key": {"HIV [1]": {"test_system": "HIV", "conditions": "continuous cultures of cells from the lymphocyte system; Tsai (1990); cited from earlier work"}, "HIV-1 [2]": {"test_system": "HIV-1", "conditions": "association hydroxychloroquine (400 mg/day) plus HU plus ddI, 48 weeks, Paton et al. 2002, cited from earlier work"}, "HIV [3]": {"test_system": "HIV", "conditions": "800 mg/day, compared to placebo; Sperber et al. 1997; cited from earlier work"}, "HIV-1 [4]": {"test_system": "HIV-1", "conditions": "800 mg/day, 8 weeks, Sperber et al. (1995), cited from earlier work"}, "[5]": {"conditions": "plasmatic concentrations 7 to 15 microM, prolonged over 18-24 months; Lange (1994); cited from earlier work"}, "HIV-1 [6]": {"test_system": "HIV-1", "conditions": "Sperber (1993), cited from earlier work"}, "HIV [7]": {"test_system": "HIV", "conditions": "in vitro, cited from earlier work"}},
  "data": [
    {"compound": "CCN(CC)CCCC(C)Nc1ccnc2cc(Cl)ccc12", "note": "(stereo not drawn) [CQ, chloroquine]", "values": [
      {"measurement": "inhibition of the HIV replicative cycle", "setting": "HIV [1]", "result": "inhibits the HIV replicative cycle"}
    ]},
    {"compound": "CCN(CCO)CCCC(C)Nc1ccnc2cc(Cl)ccc12", "note": "(stereo not drawn) [HCQ, hydroxychloroquine]", "values": [
      {"measurement": "decrement of plasmatic HIV-RNA", "setting": "HIV-1 [2]; 22 patients", "result": 1.3, "unit": "logs"},
      {"measurement": "tolerability", "setting": "HIV-1 [2]", "result": "well tolerated"},
      {"measurement": "plasmatic HIV-RNA", "setting": "HIV [3]", "result": "significant reduction"},
      {"measurement": "quantity of HIV-RNA", "setting": "HIV-1 [4]; asymptomatic HIV-1 positive patients", "result": "significantly decreased"},
      {"measurement": "negative events", "setting": "HIV-1 [4]", "result": "No negative event was observed"},
      {"measurement": "retinopathy", "setting": "[5]", "result": "rarely induced retinopathy"},
      {"measurement": "production of infecting viral particles", "setting": "HIV-1 [6]; CEM cells used as target", "result": "almost completely inhibits"},
      {"measurement": "inhibition of HIV-1 replication", "setting": "HIV-1 [6]; PBMC, U-937, CEM", "result": "> 75", "unit": "%"},
      {"measurement": "toxic effect in cell cultures", "setting": "HIV-1 [6]; concentration suitable for inhibit viral replication", "result": "no toxic effect was found"},
      {"measurement": "effect on inhibition of the HIV replication when added to ddI plus HU", "setting": "HIV [7]; Boelaert et al. (1999)", "result": "extra effect"},
      {"measurement": "effect when added to the association AZT plus HU", "setting": "HIV [7]; Boelaert et al. (2001)", "result": "additional effect"}
    ]}
  ]
}
